Reference: US7074801B1, “Nitrogen-containing condensed cyclic compound having a pyrazolyl group as a substituent group and pharmaceutical composition thereof” (Eisai Co., Ltd., priority 2001, dated 2006)
Counter-ions that a name gives are not always drawn. Like-named read-outs stand apart in the source and are kept apart here.

Test system: STAT6
Test: Inhibitory test on STAT6 activation: IL-4-induced alkali phosphatase STAT6 reporter in 293 cells stably expressing the STAT6 gene and STAT6 reporter gene
Type: cell-based
Conditions: HEK293, 1 ng/ml human recombinant IL-4, 16 hours, 293 cells with STAT6 reporter, read-out: Inhibitory activity IC50 (concentration at which the alkali phosphatase activity induced by IL-4 was inhibited by 50%)
Protocol: The inhibitory action of the present compound on activation of STAT6 was evaluated according to the following experiments.
1) Construction of a STAT6 Reporter Gene
An oligonucleotide of SEQ ID NO:1 in which three STAT6-binding regions on a human immunoglobulin germline E gene promoter had been linked was mixed with its complementary chain, thermally denatured and annealed, and 5′- and 3′-ends thereof were cleaved with restriction enzymes Kpn I (Code No. 1068A, Takara Shuzo) and Xba I (Code No. 1093A, Takara Shuzo) respectively, and the resulting fragment was cloned into a Kpn I/Xba I site of pUG-BGH-PLAP vector (described in Molecular Pharmacology, 49:860–873, 1996). To induce a basic transcriptional factor, a TK promoter region of herpes virus was cloned into an Xba I/Hind III (Code No. 1060A, Takara Shuzo) site of the pUG-BGH-PLAP vector. To obtain a stably expressing cell strain, a neomycin resistance gene (PGK-neo expression cassette) was integrated with an Sal I (Code No. 1080A, Takara Shuzo) of this vector. Cloning of the TK promoter and PGK-neo expression cassette was carried out according to Molecular Pharmacology, 49:860–873, 1996.
The underlined sites are a Kpn I recognition site and Xba I recognition site respectively. 2) Construction of an STAT6 Expression Vector
An oligonucleotide of SEQ ID NO:2 containing an initiation codon of STAT6 gene and an oligonucleotide of SEQ ID NO:3 containing a stop codon were used, and total RNA was prepared from human peripheral blood cells by using RNeasy Mini kit (Code No. 74104, OIAGEN). Then, cDNA was prepared by reverse transcription reaction using Takara RNA LA PCR kit (Code No. RR012A, Takara Shuzo) and then subjected to PCR reaction with primers of SEQ ID NOS:2 and 3, to amplify the STAT6 gene. • (SEQ ID NO:2) 5′-[…]-3′ The underlined site is an EcoR I recognition site. • (SEQ ID NO:3) 5′-[…]-3′ The underlined site is an Xho I recognition site.
The PCR product was digested with EcoR I (Code No. 1040A, Takara Shuzo) and Xho I (1094A, Takara Shuzo), and the digested fragment was isolated on an agarose gel. The isolated fragment was integrated into a vector fragment obtained by digesting pcDNA3.1 (+) (Code No. U790-20, Invitrogen) vector with EcoRI/Xho I.
3) Introduction of the Gene and Preparation of a Stably Expressing Cell Strain
Human fetal kidney-derived 293 cells (American Type Culture Collection), 3.0×10^5 cells, were spread on a Falcon tissue culture 6-well plate (Code No. 35-3046, Becton Dickinson) and cultured overnight. 1.5 μg of the prepared STAT6 reporter gene, 1.5 μg of the STAT6 gene and 20 μl of lipofectamine (Code No. 18324-012, GIBCO BRL) were mixed in 0.3 ml OPTI-MEM medium (Code No. 31985-070) and left at room temperature for 20 minutes. Thereafter, 1.2 ml OPTI-MEM medium was further added to the cells washed with OPTI-MEM medium not containing fetal bovine serum, and the cells were cultured for 2 hours. 1.5 ml medium containing fetal bovine serum was added thereto, and the cells were cultured for additional 19 hours. The medium was exchanged with a fresh one, and Geneticin (Code No. G-5013, SIGMA) was added at a concentration of 1 mg/ml, and the cells were cultured, and chemical-resistant cells were selected. The resulting chemical-resistant cells were floated in a medium containing 1 mg/ml Geneticin, then spread at a density of 0.5 cell/well on a 96-well microplate (Code No. 35-3072, Becton Dickinson) and cloned to give a clone expressing alkali phosphatase in response to IL-4.
4) Inhibitory Test on STAT6 Activation
The cells stably expressing the STAT6 gene and STAT6 reporter gene and expressing alkali phosphatase in response to IL-4 were spread at a density of 5000 cells/180 μl/well on a 96-well microplate (Code No. 35-3072, Becton Dickinson) and cultured overnight. […]

SMILES | IC50 (Table 1) | IC50 (Table 2)
O=C(NC1(c2ccc(F)cc2F)CC1)c1ccc(-c2cnc3ccc(-c4cn[nH]c4)cn23)cc1F [Example 661, N1-[1-(2,4-Difluorophenyl)cyclopropyl]-2-fluoro-4-[6-(1H-4-pyrazolyl)imidazo[1,2-a]pyridin-3-yl]benzamide hydrochloride] | < 10 nM | 
O=C(NC1(c2ccc(F)cc2)CC1)c1ccc(-c2cnc3ccc(-c4cn[nH]c4)cn23)cc1F [Example 663, N1-[1-(4-Fluorophenyl)cyclopropyl]-2-fluoro-4-[6-(1H-4-pyrazolyl)imidazo[1,2-a]pyridin-3-yl]benzamide hydrochloride] | < 10 nM | 
O=C(Nc1nc2ccc(F)cc2s1)c1ccc(-c2cnc3ccc(-c4cn[nH]c4)cn23)cc1F [Example 669, N1-(6-Fluoro-1,3-benzothiazol-2-yl)-2-fluoro-4-[6-(1H-4-pyrazolyl)imidazo[1,2-a]pyridin-3-yl]benzamide dihydrochloride] | < 10 nM | 
O=C(Nc1nc2ccc(OC(F)(F)F)cc2s1)c1ccc(-c2cnc3ccc(-c4cn[nH]c4)cn23)cc1F [Example 670, N1-[6-(Trifluoromethoxy)-1,3-benzothiazol-2-yl]-2-fluoro-4-[6-(1H-4-pyrazolyl)imidazo[1,2-a]pyridin-3-yl]benzamide dihydrochloride] | 10 to 100 nM | 
C[C@H](NC(=O)c1ccc(-c2cnc3ccc(-c4cn[nH]c4)cn23)cc1F)C(=O)c1ccc(F)cc1 [Example 672, N1-[(1S)-2-(4-Fluorophenyl)-1-methyl-2-oxoethyl]-2-fluoro-4-[6-(1H-4-pyrazolyl)imidazo[1,2-a]pyridin-3-yl]benzamide hydrochloride] | < 10 nM | 
Cc1ccc(C(=O)C(C)(C)NC(=O)c2ccc(-c3cnc4ccc(-c5cn[nH]c5)cn34)cc2F)c(F)c1 [Example 674, hydrochloride] | < 10 nM | 
CCc1ccc(C(=O)C(C)(C)NC(=O)c2ccc(-c3cnc4ccc(-c5cn[nH]c5)cn34)cc2F)cc1 [Example 676, N1-[2-(4-Ethylphenyl)-1,1-dimethyl-2-oxyethyl]-2-fluoro-4-[6-(1H-4-pyrazolyl)imidazo[1,2-a]pyridin-3-yl]benzamide hydrochloride] | 10 to 100 nM | 
O=C(Nc1ccc(F)cc1F)c1ccc(-c2cnc3ccc(-c4cn[nH]c4)cn23)cc1F [Example 678, N1-(2,4-Difluorophenyl)-2-fluoro-4-[6-(1H-4-pyrazolyl)-imidazo[1,2-a]pyridin-3-yl]benzamide hydrochloride] | < 10 nM | 
O=C(Nc1ccc(Cl)cn1)c1ccc(-c2cnc3ccc(-c4cn[nH]c4)cn23)cc1F [Example 680, N1-(5-Chloro-2-pyridyl)-2-fluoro-4-[6-(1H-4-pyrazolyl)-imidazo[1,2-a]pyridin-3-yl]benzamide dihydrochloride] | < 10 nM | 
Cc1ccnc(NC(=O)c2ccc(-c3cnc4ccc(-c5cn[nH]c5)cn34)cc2F)c1 [Example 681, N1-(4-Methyl-2-pyridyl)-2-fluoro-4-[6-(1H-4-pyrazolyl)-imidazo[1,2-a]pyridin-3-yl]benzamide dihydrochloride] | < 10 nM | 
Cc1cc(NC(=O)c2ccc(-c3cnc4ccc(-c5cn[nH]c5)cn34)cc2F)on1 [Example 688, N1-(3-Methylisoxazol-5-yl)-2-fluoro-4-[6-(1H-4-pyrazolyl)-imidazo[1,2-a]pyridin-3-yl]benzamide dihydrochloride] | < 10 nM | 
C=Cc1ccc(NC(=O)c2ccc(-c3cnc4ccc(-c5cn[nH]c5)cn34)cc2F)nc1 [Example 689, N1-(5-Vinyl-2-pyridyl)-2-fluoro-4-[6-(1H-4-pyrazolyl)-imidazo[1,2-a]pyridin-3-yl]benzamide dihydrochloride] | < 10 nM | 
Fc1cc(Cl)ccc1-c1nc(-c2ccc(-c3cnc4ccc(-c5cn[nH]c5)cn34)cc2)no1 [Example 697, 5-(4-Chloro-2-fluorophenyl)-3-{4-[6-(1H-4-pyrazolyl)-imidazo[1,2-a]pyridin-3-yl]-1,2,4-oxadiazole hydrochloride] | 10 to 100 nM | 
O=C(Nc1ccc(-c2cnc3ccc(-c4cn[nH]c4)cn23)cc1F)NC1CCCCC1 [Example 698, N-Cyclohexyl-N′-(2-fluoro-4-[6-(1H-4-pyrazolyl)imidazo[1,2-a]pyridin-3-yl]phenyl}urea hydrochloride] | 10 to 100 nM | 
CC(C)NC(=O)Nc1ccc(-c2cnc3ccc(-c4cn[nH]c4)cn23)cc1F [Example 699, N-12-Fluoro-4-[6-(1H-4-pyrazolyl)imidazo[1,2-a]pyridin-3-yl] phenyl}-N′-isopropylurea hydrochloride] | 10 to 100 nM | 
NS(=O)(=O)c1ccc(NC(=O)c2ccc(-c3cnc4ccc(-c5cn[nH]c5)cn34)cc2F)cc1 [Example 700, N1-[4-(Aminosulfonyl)phenyl]-2-fluoro-4-[6-(1H-4-pyrazolyl)imidazo[1,2-a]pyridin-3-yl]benzamide hydrochloride] |  | 10 to 100 nM
CS(=O)(=O)c1ccccc1NC(=O)c1ccc(-c2cnc3ccc(-c4cn[nH]c4)cn23)cc1F [Example 701, N1-[2-(Methylsulfonyl)phenyl]-2-fluoro-4-[6-(1H-4-pyrazolyl)imidazo[1,2-a]pyridin-3-yl]benzamide hydrochloride] |  | 10 to 100 nM
O=C(Nc1ccc(-c2cnc3ccc(-c4cn[nH]c4)cn23)cc1F)c1ccc(F)cc1 [Example 705, N1-{2-Fluoro-4-[6-(1H-4-pyrazolyl)imidazo[1,2-a]pyridin-3-yl]phenyl}-4-fluorobenzamide hydrochloride] |  | 10 to 100 nM
O=C(NCc1cccc(OC(F)F)c1)c1ccc(-c2cnc3ccc(-c4cn[nH]c4)cn23)cc1F [Example 706, N1-[3-(Difluoromethoxy)benzyl]-2-fluoro-4-[6-(1H-4-pyrazolyl)imidazo[1,2-a]pyridin-3-yl]benzamide hydrochloride] |  | < 10 nM
CC(NC(=O)c1ccc(-c2cnc3ccc(-c4cn[nH]c4)cn23)cc1F)c1ccccn1 (stereo not drawn) [Example 707, N1-[1-(2-Pyridyl)ethyl]-2-fluoro-4-[6-(1H-4-pyrazolyl)-imidazo[1,2-a]pyridin-3-yl]benzamide dihydrochloride] |  | 10 to 100 nM
O=C(NC1=NCCS1)c1ccc(-c2cnc3ccc(-c4cn[nH]c4)cn23)cc1F [Example 712, N1-(4,5-Dihydro-1,3-thiazol-2-yl)-2-fluoro-4-[6-(1H-4-pyrazolyl)imidazo[1,2-a]pyridin-3-yl]benzamide dihydrochloride] |  | < 10 nM
COC1CCN(C(=O)c2ccc(-n3cnc4ccc(-c5c[nH]nc5-c5ccc(F)cc5)cc43)nc2)C1 (stereo not drawn) [Example 725, 6-{6-[3-(4-Fluorophenyl)-1H-4-pyrazolyl]-1H-benzo[d]imidazol-1-yl}-pyridin-3-yl)-(3-methoxypyrrolidin-1-yl)methanone dihydrochloride] |  | < 10 nM
Fc1cccc(F)c1-c1n[nH]cc1-c1ccc2ncn(-c3ccc(Cl)cn3)c2c1 [Example 727, 1-(5-Chloropyridin-2-yl)-6-[3-(2,6-difluorophenyl)-1H-4-pyrazolyl]-1H-benzo[d]imidazole trihydrochloride] |  | < 10 nM
Cc1ccnc(NC(=O)c2ccc(-n3cnc4ccc(-c5cn[nH]c5)cc43)cc2F)c1 [Example 728, N1-(4-Methyl-2-pyridyl)-2-fluoro-4-[6-(1H-4-pyrazolyl)-1H-benzo[d]imidazol-1-yl]benzamide trihydrochloride] |  | < 10 nM
